Measurements taken from article PMC3617406 (Molecular pharmaceutics, 2013).
Counter-ions that a name gives are not always drawn.

Key:
[1] = target: T1, human NTCP (Homo sapiens, UniProt Q14973); format: cell-based; settings: for NTCP inhibitor or non-inhibitor: inhibitor = Ki less than 300 μM; for potency estimated from few doses: read-out: Estimated Ki for NTCP
T1 sequence (Q14973 1-349): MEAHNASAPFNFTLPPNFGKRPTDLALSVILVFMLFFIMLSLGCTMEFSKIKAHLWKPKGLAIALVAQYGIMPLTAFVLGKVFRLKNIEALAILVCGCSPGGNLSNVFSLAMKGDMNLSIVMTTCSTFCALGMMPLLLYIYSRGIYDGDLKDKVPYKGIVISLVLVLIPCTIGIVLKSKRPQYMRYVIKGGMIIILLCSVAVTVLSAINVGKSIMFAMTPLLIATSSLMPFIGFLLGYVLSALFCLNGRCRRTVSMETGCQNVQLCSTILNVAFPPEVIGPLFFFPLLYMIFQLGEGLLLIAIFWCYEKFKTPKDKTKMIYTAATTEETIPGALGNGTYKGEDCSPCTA

[2] = target: T2, human ASBT (Homo sapiens, UniProt Q12908); format: cell-based; settings: for potency estimated from few doses: read-out: Estimated Ki for ASBT; for fold more potent ASBT inhibition than NTCP inhibition: Ki values of Table 4 and 5; for taurocholate uptake into ASBT-MDCK cells, percent of control: single drug concentration, same as in NTCP screening (typically 100 μM); for ASBT inhibitor or non-inhibitor: inhibitor = Ki below 300 μM
T2 sequence (Q12908 1-348): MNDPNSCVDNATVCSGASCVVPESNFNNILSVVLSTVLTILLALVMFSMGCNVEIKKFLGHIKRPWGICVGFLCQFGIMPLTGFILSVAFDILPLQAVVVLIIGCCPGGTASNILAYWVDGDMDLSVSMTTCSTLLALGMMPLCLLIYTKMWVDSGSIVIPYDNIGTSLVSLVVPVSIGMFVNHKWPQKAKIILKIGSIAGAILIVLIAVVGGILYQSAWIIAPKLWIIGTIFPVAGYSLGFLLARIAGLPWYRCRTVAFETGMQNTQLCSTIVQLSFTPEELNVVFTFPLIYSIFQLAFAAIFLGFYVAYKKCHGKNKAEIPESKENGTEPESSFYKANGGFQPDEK

SMILES | NTCP inhibitor or non-inhibitor [1] | potency estimated from few doses [1] | potency estimated from few doses [2] | fold more potent ASBT inhibition than NTCP inhibition [2] | taurocholate uptake into ASBT-MDCK cells, percent of control [2] | ASBT inhibitor or non-inhibitor [2]
CCCCc1ncc(/C=C(\Cc2cccs2)C(=O)O)n1Cc1ccc(C(=O)O)cc1 [Eprosartan] | did not inhibit NTCP | > 100 µM | 246 ± 119 µM | – | – | –
Cc1ccc(NC(=O)c2ccc(CN3CCN(C)CC3)cc2)cc1Nc1nccc(-c2cccnc2)n1 [Imatinib] | – | 673 ± 130 µM | 177 ± 32 µM | – | – | –
CN(C)CCCN1c2ccccc2Sc2ccc(Cl)cc21 [Chlorpromazine] | – | 767 ± 268 µM | 50.7 ± 5.9 µM | ≥ 10 fold | below 50% | –
NS(=O)(=O)c1cc2c(cc1C(F)(F)F)NC(Cc1ccccc1)NS2(=O)=O (stereo not shown) [Bendroflumethiazide] | – | – | 168 ± 10 µM | – | – | –
CCN(CC)CCNC(=O)c1ccc(N)cc1 [Procainamide HCl] | – | 384 ± 185 µM | > 100 µM | – | – | –
COc1ccc2[nH]c([S+]([O-])Cc3ncc(C)c(OC)c3C)nc2c1 (stereo not shown) [Omeprazole] | – | > 100 µM | 103 ± 23 µM | ≥ 10 fold | – | –
COCCOC(=O)C1=C(C)NC(C)=C(C(=O)OC(C)C)C1c1cccc([N+](=O)[O-])c1 (stereo not shown) [Nimodipine] | – | – | 30.9 ± 1.7 µM | – | below 50% | –
C=C[C@H]1C[N@@]2CC[C@H]1C[C@H]2[C@H](O)c1ccnc2ccc(OC)cc12 [Quinine] | – | 1490 ± 581 µM | 239 ± 117 µM | – | – | –
Cc1ncc([N+](=O)[O-])n1CCO [Metronidazole] | – | 369 ± 83 µM | 223 ± 90 µM | – | – | ASBT inhibitors
CN1CCC[C@@H]1Cc1c[nH]c2ccc(CCS(=O)(=O)c3ccccc3)cc12 [Eletriptan] | – | > 100 µM | 137 ± 48 µM | ≥ 10 fold | – | –
COc1ccc(CC(C)NCC(O)c2ccc(O)c(NC=O)c2)cc1 (stereo not shown) [Formoterol] | – | > 100 µM | 175 ± 96 µM | – | – | –
C[C@H]1[C@H](NC(=O)/C(=N\OC(C)(C)C(=O)O)c2csc(N)n2)C(=O)N1S(=O)(=O)O [Aztreonam] | – | > 100 µM | 1420 µM | – | – | –
CCC(C)n1ncn(-c2ccc(N3CCN(c4ccc(OCC5COC(Cn6cncn6)(c6ccc(Cl)cc6Cl)O5)cc4)CC3)cc2)c1=O (stereo not shown) [Itraconazole] | NTCP inhibitors | 77.1 ± 38 µM | 57 ± 25 µM | – | – | ASBT inhibitors
CC(C)c1nc(CN(C)C(=O)N[C@H](C(=O)N[C@@H](Cc2ccccc2)C[C@H](O)[C@H](Cc2ccccc2)NC(=O)OCc2cncs2)C(C)C)cs1 [Ritonavir] | – | – | 47.3 ± 9.7 µM | – | below 50% | –
COCc1c(C(C)C)nc(C(C)C)c(/C=C/[C@@H](O)C[C@@H](O)CC(=O)O)c1-c1ccc(F)cc1 [Cerivastatin] | NTCP inhibitors | – | – | – | – | –
CCOC(=O)C1=C[C@@H](OC(CC)CC)[C@H](NC(C)=O)[C@@H](N)C1 [Oseltamivir] | – | > 100 µM | 1020 ± 49 µM | – | – | –
CCCCC1=NC2(CCCC2)C(=O)N1Cc1ccc(-c2ccccc2-c2nnn[nH]2)cc1 [Irbesartan] | inhibited NTCP | – | 131 ± 34 µM | – | – | –
CC(C)c1nc(N(C)S(C)(=O)=O)nc(-c2ccc(F)cc2)c1/C=C/[C@@H](O)C[C@@H](O)CC(=O)O [Rosuvastatin] | – | – | 164 ± 34 µM | – | – | –
C[C@H]1O[C@H](O[C@H]2[C@H](O)[C@@H](O)[C@@H](O[C@H]3[C@H](O)[C@@H](O)C(O)O[C@@H]3CO)O[C@@H]2CO)[C@H](O)[C@@H](O)[C@@H]1N[C@H]1C=C(CO)[C@@H](O)[C@H](O)[C@H]1O (stereo partly shown) [Acarbose] | – | > 100 µM | 318 ± 169 µM | – | – | –
CCCNCC(O)COc1ccccc1C(=O)CCc1ccccc1 (stereo not shown) [Propafenone HCl] | – | 402 ± 116 µM | 50.3 ± 18 µM | – | – | –
NS(=O)(=O)c1cc(C(=O)O)c(NCc2ccco2)cc1Cl [Furosemide] | – | 304 ± 132 µM | > 100 µM | – | – | –
CCCCc1nc(Cl)c(CO)n1Cc1ccc(-c2ccccc2-c2nn[nH]n2)cc1 [Losartan] | – | – | 139 ± 58 µM | – | – | –
Clc1ccc(C(Cn2ccnc2)OCc2ccsc2Cl)c(Cl)c1 (stereo not shown) [Tioconazole] | – | – | 11.9 ± 2.7 µM | – | below 50% | ASBT inhibitors

SMILES | NTCP inhibitor or non-inhibitor [1] | potency estimated from few doses [1] | potency estimated from few doses [2] | fold more potent ASBT inhibition than NTCP inhibition [2] | taurocholate uptake into ASBT-MDCK cells, percent of control [2] | ASBT inhibitor or non-inhibitor [2]
CCN(CC)CCCC(C)Nc1ccnc2cc(Cl)ccc12 (stereo not shown) [Chloroquine] | – | 336 ± 101 µM | – | – | – | –
Clc1ccc(COC(Cn2ccnc2)c2ccc(Cl)cc2Cl)c(Cl)c1 (stereo not shown) [Miconazole] | – | 601 ± 300 µM | 61.3 ± 16 µM | – | – | ASBT inhibitors
O=C1C(CC[S+]([O-])c2ccccc2)C(=O)N(c2ccccc2)N1c1ccccc1 (stereo not shown) [Sulfinpyrazone] | – | 1660 ± 2870 µM | 529 ± 600 µM | – | – | –
CCCCOc1cc(C(=O)NCCN(CC)CC)c2ccccc2n1 [Dibucaine] | – | > 100 µM | 85.8 ± 2.3 µM | ≥ 10 fold | – | –
CN1CCN(CC/C=C2/c3ccccc3Sc3ccc(S(=O)(=O)N(C)C)cc32)CC1 [Thiothixene] | – | > 100 µM | > 100 µM | – | – | –
Nc1nc(N)c2nc(-c3ccccc3)c(N)nc2n1 [Triamterene] | – | 411 ± 139 µM | 110 ± 3 µM | – | – | –
COC(=O)[C@@H]1[C@H]2C[C@H]3c4[nH]c5ccccc5c4CCN3C[C@@H]2CC[C@@H]1O [Yohimbine] | – | > 100 µM | 377 ± 442 µM | – | – | –
CC(=O)CC(c1ccccc1)c1c(O)c2ccccc2oc1=O (stereo not shown) [Warfarin] | – | > 100 µM | 97.4 ± 26 µM | – | – | –
Nc1ccc(S(N)(=O)=O)cc1 [Sulfanilamide] | inhibited NTCP | 250 ± 50 µM | 194 ± 24 µM | – | – | –
N[C@@H](C(=O)N[C@@H]1C(=O)N2C(C(=O)O)=C(Cl)CS[C@H]12)c1ccccc1 [Cefaclor] | – | > 100 µM | 1890 ± 257 µM | – | – | –
O=C1[C@H](CC[C@H](O)c2ccc(F)cc2)[C@@H](c2ccc(O)cc2)N1c1ccc(F)cc1 [Ezetimibe] | NTCP inhibitors | 53.8 ± 3.3 µM | 4.61 ± 0.88 µM | – | below 50% | –
Nc1nc(NC2CC2)c2ncn([C@H]3C=C[C@@H](CO)C3)c2n1 [Abacavir] | – | 1290 µM | 1460 µM | – | – | –
CCCN(CCC)CCc1cccc2c1CC(=O)N2 [Ropinirole] | – | > 100 µM | 30.3 ± 11 µM | – | below 50% | –
O=C(c1ccc(OCCN2CCCCC2)cc1)c1c(-c2ccc(O)cc2)sc2cc(O)ccc12 [Raloxifene HCl] | – | – | 65.8 ± 9.2 µM | – | – | –
CC[C@H](C)C(=O)O[C@H]1C[C@@H](C)C=C2C=C[C@H](C)[C@H](CC[C@@H]3C[C@@H](O)CC(=O)O3)[C@H]21 [Lovastatin] | NTCP inhibitors | 202 ± 32 µM | 21.7 ± 2.1 µM | – | below 50% | –
CCCc1nc(C(C)(C)O)c(C(=O)O)n1Cc1ccc(-c2ccccc2-c2nnn[nH]2)cc1 [Olmesartan] | – | – | 1050 ± 422 µM | – | – | inhibited NTCP but not ASBT
COC(=O)C1=C(C)NC(C)=C(C(=O)OCCN(C)Cc2ccccc2)C1c1cccc([N+](=O)[O-])c1 (stereo not shown) [Nicardipine] | – | 309 ± 144 µM | 142 ± 3 µM | – | – | –
CN/C(=N/CCSCc1nc[nH]c1C)NC#N [Cimetidine] | – | 332 ± 73 µM | 208 ± 51 µM | – | – | –
CCOC(=O)[C@H](CCc1ccccc1)N[C@@H](C)C(=O)N1CCC[C@H]1C(=O)O [Enalapril] | – | > 100 µM | 162 ± 82 µM | ≥ 10 fold | – | –
Clc1ccc(COC(Cn2ccnc2)c2ccc(Cl)cc2Cl)cc1 (stereo not shown) [Econazole] | – | 416 ± 624 µM | 18.5 ± 3.9 µM | ≥ 10 fold | below 50% | ASBT inhibitors
COC(=O)C1=C(C)NC(C)=C(C(=O)OC(C)C)C1c1cccc2nonc12 (stereo not shown) [Isradipine] | NTCP inhibitors | 99.5 ± 14 µM | 17.9 ± 2.3 µM | – | below 50% | –
CCOC(=O)C1=C(C)NC(C)=C(C(=O)OC)C1c1cccc([N+](=O)[O-])c1 (stereo not shown) [Nitrendipine] | – | – | 31.7 ± 6.5 µM | – | – | –
